ChEMBL document CHEMBL1201862, “PubChem BioAssay data set” (2004)
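Cultured in 96-well plates, cells were exposed to test compound for 48 hours across five concentrations. The concentration for 50% growth inhibition is given as GI50.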 Calls of active or inactive are those of the source. Rule as the data show it: active = GI50 up to about 1.1 µM and inactive = higher.

Key:
Test in all cases: inhibition of tumour cell growth, NCI panel, 48 h
HOP-62 = system: HOP-62
Hs-578T = system: Hs-578T
MDA-N = system: MDA-N
NCI/ADR-RES = system: NCI/ADR-RES
MDA-MB-435 = system: MDA-MB-435
A498 = system: A498
UACC-62 = system: UACC-62
SK-OV-3 = system: SK-OV-3
SN12C = system: SN12C
NCI-H226 = system: NCI-H226
COLO 205 = system: COLO 205
HOP-92 = system: HOP-92
A549 = system: A549
DU-145 = system: DU-145
NCI-H522 = system: NCI-H522
OVCAR-3 = system: OVCAR-3
HCC 2998 = system: HCC 2998
HL-60 = system: HL-60
RXF 393 = system: RXF 393

Structure (SMILES)	GI50 (HOP-62)	GI50 (Hs-578T)	GI50 (MDA-N)	GI50 (NCI/ADR-RES)	GI50 (MDA-MB-435)	GI50 (A498)	GI50 (UACC-62)	GI50 (SK-OV-3)	GI50 (SN12C)	GI50 (NCI-H226)	GI50 (COLO 205)	GI50 (HOP-92)	GI50 (A549)	GI50 (DU-145)	GI50 (NCI-H522)	GI50 (OVCAR-3)	GI50 (HCC 2998)	GI50 (HL-60)	GI50 (RXF 393)
CSC1=N/C(=C\c2ccc(Cl)cc2)C(=O)N1CN1CCOCC1	23.4 µM (inactive)	33 µM (inactive)	47.8 µM (inactive)	40.6 µM (inactive)	58.3 µM (inactive)	17.6 µM (inactive)	28.9 µM (inactive)	30.6 µM (inactive)	47.5 µM (inactive)	46.8 µM (inactive)	28.9 µM (inactive)	0.308 µM (active)	> 100 µM (inactive)	63.8 µM (inactive)	30.7 µM (inactive)	41.7 µM (inactive)	–	–	–
ON=C(CC(O)(C(F)(F)Cl)C(F)(F)Cl)CC(O)(C(F)(F)Cl)C(F)(F)Cl	2.84 µM (inactive)	3.52 µM (inactive)	–	4.69 µM (inactive)	4.07 µM (inactive)	2.87 µM (inactive)	3.46 µM (inactive)	2.99 µM (inactive)	4.67 µM (inactive)	4.07 µM (inactive)	5.04 µM (inactive)	–	5.46 µM (inactive)	3.28 µM (inactive)	3.21 µM (inactive)	3.23 µM (inactive)	4.5 µM (inactive)	4.1 µM (inactive)	2.7 µM (inactive)
O=[N+]([O-])c1ccccc1S(=O)(=O)c1cc(Cl)cc2c1NCCC2	> 100 µM (inactive)	40.1 µM (inactive)	–	> 100 µM (inactive)	35.5 µM (inactive)	> 100 µM (inactive)	38.5 µM (inactive)	> 100 µM (inactive)	90.6 µM (inactive)	45.5 µM (inactive)	33.6 µM (inactive)	91.2 µM (inactive)	65.8 µM (inactive)	94.6 µM (inactive)	–	> 100 µM (inactive)	20.1 µM (inactive)	31.3 µM (inactive)	63 µM (inactive)
C(/C=N/N=C1NCCCN1)=N\N=C1NCCCN1	> 100 µM (inactive)	> 100 µM (inactive)	> 100 µM (inactive)	> 100 µM (inactive)	> 100 µM (inactive)	–	> 100 µM (inactive)	> 100 µM (inactive)	> 100 µM (inactive)	> 100 µM (inactive)	> 100 µM (inactive)	56.5 µM (inactive)	> 100 µM (inactive)	–	> 100 µM (inactive)	> 100 µM (inactive)	> 100 µM (inactive)	–	–
COC(=O)CC(CNC(=O)OCc1ccccc1)OCc1ccc(OC)cc1 (configuration not stated)	–	–	> 100 µM (inactive)	> 100 µM (inactive)	> 100 µM (inactive)	> 100 µM (inactive)	> 100 µM (inactive)	> 100 µM (inactive)	> 100 µM (inactive)	66.2 µM (inactive)	> 100 µM (inactive)	> 100 µM (inactive)	> 100 µM (inactive)	> 100 µM (inactive)	> 100 µM (inactive)	> 100 µM (inactive)	> 100 µM (inactive)	> 100 µM (inactive)	> 100 µM (inactive)
COc1ccccc1N1C(=O)/C(=C\c2ccccc2)SC1c1cc(OC)c(OC)c(OC)c1 (configuration not stated)	46.7 µM (inactive)	33.7 µM (inactive)	17.9 µM (inactive)	32.1 µM (inactive)	17.9 µM (inactive)	55.6 µM (inactive)	30.2 µM (inactive)	42.3 µM (inactive)	17.6 µM (inactive)	> 100 µM (inactive)	35.9 µM (inactive)	34.5 µM (inactive)	40.7 µM (inactive)	–	22.2 µM (inactive)	–	37.3 µM (inactive)	–	–
CCSc1nc(N2CCOCC2)c2cn[nH]c2n1	> 100 µM (inactive)	33.9 µM (inactive)	–	> 100 µM (inactive)	41.8 µM (inactive)	4.6 µM (inactive)	20.7 µM (inactive)	86.3 µM (inactive)	52.5 µM (inactive)	> 100 µM (inactive)	39.7 µM (inactive)	48 µM (inactive)	76.9 µM (inactive)	> 100 µM (inactive)	35 µM (inactive)	52.1 µM (inactive)	> 100 µM (inactive)	> 100 µM (inactive)	> 100 µM (inactive)
COC(=O)c1cc(C)ccc1/C=C1\Cc2cccc(C)c2C1=O	31.2 µM (inactive)	57.5 µM (inactive)	11.1 µM (inactive)	–	–	46.3 µM (inactive)	–	–	4.9 µM (inactive)	58.3 µM (inactive)	–	20.4 µM (inactive)	28.2 µM (inactive)	65.3 µM (inactive)	10.5 µM (inactive)	19.5 µM (inactive)	47.5 µM (inactive)	19.7 µM (inactive)	61.9 µM (inactive)
COc1ccc(N2CC(=O)N(C(=O)COc3ccc(OCC(=O)N4C(=O)CN(c5ccc(OC)cc5)C4=S)cc3)C2=S)cc1	–	–	> 100 µM (inactive)	> 100 µM (inactive)	> 100 µM (inactive)	> 100 µM (inactive)	70.8 µM (inactive)	> 100 µM (inactive)	> 100 µM (inactive)	> 100 µM (inactive)	> 100 µM (inactive)	> 100 µM (inactive)	46.9 µM (inactive)	> 100 µM (inactive)	32.6 µM (inactive)	–	> 100 µM (inactive)	–	> 100 µM (inactive)
N#C/C(C(=O)Nc1ccccc1)=C(/N)N1CCOCC1	> 100 µM (inactive)	–	> 100 µM (inactive)	> 100 µM (inactive)	> 100 µM (inactive)	> 100 µM (inactive)	> 100 µM (inactive)	> 100 µM (inactive)	> 100 µM (inactive)	> 100 µM (inactive)	> 100 µM (inactive)	> 100 µM (inactive)	> 100 µM (inactive)	> 100 µM (inactive)	–	> 100 µM (inactive)	> 100 µM (inactive)	–	–
CCOC(=O)c1nc2ccc(C(F)(F)F)cc2nc1Oc1ccc(C#N)cc1	15.5 µM (inactive)	14.3 µM (inactive)	–	18.2 µM (inactive)	42.9 µM (inactive)	23.3 µM (inactive)	19.1 µM (inactive)	15.7 µM (inactive)	–	11.3 µM (inactive)	27.4 µM (inactive)	17 µM (inactive)	–	18.5 µM (inactive)	–	–	61.4 µM (inactive)	> 100 µM (inactive)	20 µM (inactive)
Nc1ccccc1C(=O)CC1OC(=O)c2ccccc21 (configuration not stated)	91 µM (inactive)	46.8 µM (inactive)	78.7 µM (inactive)	60.1 µM (inactive)	57.4 µM (inactive)	43.2 µM (inactive)	64.9 µM (inactive)	> 100 µM (inactive)	> 100 µM (inactive)	> 100 µM (inactive)	–	> 100 µM (inactive)	65.6 µM (inactive)	51.4 µM (inactive)	> 100 µM (inactive)	78.3 µM (inactive)	–	> 100 µM (inactive)	–
O=S(=O)(O)c1ccc(/N=N/c2ccc(/N=N/c3c(O)ccc4ccccc34)c(S(=O)(=O)O)c2)cc1	> 100 µM (inactive)	> 100 µM (inactive)	–	> 100 µM (inactive)	> 100 µM (inactive)	–	> 100 µM (inactive)	> 100 µM (inactive)	–	> 100 µM (inactive)	> 100 µM (inactive)	> 100 µM (inactive)	> 100 µM (inactive)	–	> 100 µM (inactive)	> 100 µM (inactive)	> 100 µM (inactive)	> 100 µM (inactive)	> 100 µM (inactive)
COc1ccc(-c2cc(-c3ccc(Nc4ccnc5cc(C(F)(F)F)ccc45)cc3)nc(N)c2C#N)cc1	43.6 µM (inactive)	–	–	> 100 µM (inactive)	> 100 µM (inactive)	> 100 µM (inactive)	40.6 µM (inactive)	> 100 µM (inactive)	–	> 100 µM (inactive)	> 100 µM (inactive)	26.1 µM (inactive)	> 100 µM (inactive)	> 100 µM (inactive)	–	14.6 µM (inactive)	> 100 µM (inactive)	> 100 µM (inactive)	> 100 µM (inactive)
O=C1/C(=C/c2ccccc2)CCCc2ccccc21	19.2 µM (inactive)	21.9 µM (inactive)	19 µM (inactive)	20 µM (inactive)	18.3 µM (inactive)	–	15.1 µM (inactive)	38.2 µM (inactive)	19.6 µM (inactive)	18.4 µM (inactive)	18.6 µM (inactive)	15.3 µM (inactive)	22.9 µM (inactive)	23.2 µM (inactive)	21.1 µM (inactive)	18.4 µM (inactive)	–	15.2 µM (inactive)	–
COc1ccc(/C=C/c2cc(O)cc(OC)c2)cc1	> 100 µM (inactive)	> 100 µM (inactive)	–	> 100 µM (inactive)	68.4 µM (inactive)	> 100 µM (inactive)	> 100 µM (inactive)	> 100 µM (inactive)	65.2 µM (inactive)	> 100 µM (inactive)	> 100 µM (inactive)	50.7 µM (inactive)	97.3 µM (inactive)	> 100 µM (inactive)	65.3 µM (inactive)	> 100 µM (inactive)	–	79.6 µM (inactive)	> 100 µM (inactive)
CC[C@H](CC[C@@H](C)[C@H]1CC[C@H]2[C@@H]3CC=C4C[C@@H](O)CC[C@]4(C)[C@H]3CC[C@]12C)C(C)C [BETA-SITOSTEROL]	> 100 µM (inactive)	> 100 µM (inactive)	> 100 µM (inactive)	> 100 µM (inactive)	> 100 µM (inactive)	–	–	–	> 100 µM (inactive)	> 100 µM (inactive)	> 100 µM (inactive)	> 100 µM (inactive)	> 100 µM (inactive)	> 100 µM (inactive)	> 100 µM (inactive)	> 100 µM (inactive)	> 100 µM (inactive)	> 10 µM (inactive)	–
